Measured values reported in ChEMBL document CHEMBL1201862, “PubChem BioAssay data set” (2004).
Calls of active or inactive are those of the source.

Legend:
[1] = biological target: 26S proteasome non-ATPase regulatory subunit 14 (Homo sapiens, UniProt O00487); assay: inhibition of proteasome subunit RPN11 – biochemical, fluorescence polarization, uHTS hits, confirmation (AID 602368); format: functional
[2] = biological target: Transitional endoplasmic reticulum ATPase (Homo sapiens, UniProt P55072); assay: p97 ATPase inhibitors, dose response, biochemical (AID 1534)
Transitional endoplasmic reticulum ATPase (Homo sapiens, UniProt P55072), sequence (P55072 whole entry): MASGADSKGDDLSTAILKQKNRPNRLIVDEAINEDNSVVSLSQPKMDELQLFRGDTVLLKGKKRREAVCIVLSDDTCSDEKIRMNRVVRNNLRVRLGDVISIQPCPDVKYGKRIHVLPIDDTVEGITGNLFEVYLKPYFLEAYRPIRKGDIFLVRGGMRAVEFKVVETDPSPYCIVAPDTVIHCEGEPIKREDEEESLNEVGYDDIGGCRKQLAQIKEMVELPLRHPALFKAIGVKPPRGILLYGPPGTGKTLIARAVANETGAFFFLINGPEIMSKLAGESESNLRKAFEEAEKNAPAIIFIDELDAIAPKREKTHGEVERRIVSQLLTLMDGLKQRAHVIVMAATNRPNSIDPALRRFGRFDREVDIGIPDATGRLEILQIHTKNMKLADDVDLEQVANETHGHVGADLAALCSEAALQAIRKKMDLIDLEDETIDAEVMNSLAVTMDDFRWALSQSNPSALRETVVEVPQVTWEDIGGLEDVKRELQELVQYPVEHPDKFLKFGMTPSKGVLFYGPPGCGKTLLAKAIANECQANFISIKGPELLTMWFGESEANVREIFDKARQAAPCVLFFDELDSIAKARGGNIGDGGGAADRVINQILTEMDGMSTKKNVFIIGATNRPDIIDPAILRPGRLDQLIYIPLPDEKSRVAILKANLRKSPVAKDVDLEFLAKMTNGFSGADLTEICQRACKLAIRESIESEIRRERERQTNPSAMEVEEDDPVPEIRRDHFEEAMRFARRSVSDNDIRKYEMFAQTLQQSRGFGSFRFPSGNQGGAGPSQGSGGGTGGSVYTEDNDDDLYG

[3] = biological target: T1, Small ubiquitin-related modifier 1 (Homo sapiens, UniProt P63165); assay: inhibitors of SUMO1 partner interactions, dose response, biochemical, FRET (AID 624383); format: functional; conditions: read-out: IC50_Mean
T1 sequence (P63165 whole entry): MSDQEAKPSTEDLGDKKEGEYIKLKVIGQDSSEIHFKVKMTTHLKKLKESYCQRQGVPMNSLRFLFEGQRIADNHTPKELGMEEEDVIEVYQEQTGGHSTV

Aminopeptidase N = biological target: T2, Aminopeptidase N (Plasmodium falciparum FcB1/Columbia, UniProt O96935); assay: P. falciparum M1AAP inhibitors, biochemical, fluorogenic H-Leu-NHMec substrate, 1536-well (AID 1445); design: species or system Plasmodium falciparum 3D7, 3D7
T2 sequence (O96935 whole entry): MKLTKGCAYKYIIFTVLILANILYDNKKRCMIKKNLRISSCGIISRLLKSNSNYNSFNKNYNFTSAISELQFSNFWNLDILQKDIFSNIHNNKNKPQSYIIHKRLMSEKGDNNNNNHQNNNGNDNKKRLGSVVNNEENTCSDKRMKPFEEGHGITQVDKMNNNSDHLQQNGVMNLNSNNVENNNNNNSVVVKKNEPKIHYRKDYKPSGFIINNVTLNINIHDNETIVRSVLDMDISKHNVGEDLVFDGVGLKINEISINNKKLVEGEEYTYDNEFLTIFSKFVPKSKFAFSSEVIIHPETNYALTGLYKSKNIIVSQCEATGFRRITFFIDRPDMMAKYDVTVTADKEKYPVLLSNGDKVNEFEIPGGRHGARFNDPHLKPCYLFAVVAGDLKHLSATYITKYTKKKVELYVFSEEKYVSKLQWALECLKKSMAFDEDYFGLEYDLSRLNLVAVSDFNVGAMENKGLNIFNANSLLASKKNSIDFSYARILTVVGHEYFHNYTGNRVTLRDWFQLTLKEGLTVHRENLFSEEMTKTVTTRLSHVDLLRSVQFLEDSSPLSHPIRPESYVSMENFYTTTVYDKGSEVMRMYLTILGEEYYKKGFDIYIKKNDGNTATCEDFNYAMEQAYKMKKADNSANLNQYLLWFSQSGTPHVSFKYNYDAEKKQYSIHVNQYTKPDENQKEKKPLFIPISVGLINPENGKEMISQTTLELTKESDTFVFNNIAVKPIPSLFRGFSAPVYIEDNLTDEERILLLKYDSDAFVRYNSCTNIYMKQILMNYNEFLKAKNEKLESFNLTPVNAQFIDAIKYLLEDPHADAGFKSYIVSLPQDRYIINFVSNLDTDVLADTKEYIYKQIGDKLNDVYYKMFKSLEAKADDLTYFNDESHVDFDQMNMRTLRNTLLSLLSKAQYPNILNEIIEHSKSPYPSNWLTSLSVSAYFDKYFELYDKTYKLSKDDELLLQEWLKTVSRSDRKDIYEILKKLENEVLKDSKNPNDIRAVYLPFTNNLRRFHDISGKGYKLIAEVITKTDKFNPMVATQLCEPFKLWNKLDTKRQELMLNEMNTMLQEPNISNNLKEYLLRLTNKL

[4] = biological target: T3, Zinc finger protein mex-5 (Caenorhabditis elegans, UniProt Q9XUB2); assay: MEX-5/TCR-2 RNA interaction inhibitors, dose response, biochemical, C. elegans, fluorescence polarization (AID 1960)
T3 sequence (Q9XUB2 whole entry): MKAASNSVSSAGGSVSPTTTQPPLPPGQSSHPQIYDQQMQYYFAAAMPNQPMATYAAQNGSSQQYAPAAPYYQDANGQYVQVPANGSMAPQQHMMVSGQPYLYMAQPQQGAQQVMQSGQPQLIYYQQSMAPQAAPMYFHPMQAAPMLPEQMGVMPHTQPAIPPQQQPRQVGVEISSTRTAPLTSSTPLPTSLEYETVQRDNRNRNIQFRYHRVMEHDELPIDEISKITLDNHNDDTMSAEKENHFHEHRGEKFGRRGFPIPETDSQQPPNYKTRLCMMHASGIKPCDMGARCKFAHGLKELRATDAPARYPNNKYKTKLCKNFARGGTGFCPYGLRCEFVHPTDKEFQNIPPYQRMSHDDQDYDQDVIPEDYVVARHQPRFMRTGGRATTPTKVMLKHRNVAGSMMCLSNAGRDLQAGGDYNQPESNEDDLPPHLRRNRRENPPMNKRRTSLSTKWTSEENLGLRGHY

[5] = biological target: T1, Small ubiquitin-related modifier 1; assay: inhibitors of SUMO1 peptide binding, dose response, biochemical, fluorescence polarization, uHTS hits (AID 624382); format: functional; conditions: read-out: IC50_Mean
Albumin = Albumin (Bos taurus, UniProt P02769); assay: Counterscreen for inhibitors of T-cell receptor (TCR)-CD3 interaction: Fluorescence-based biochemical high throughput dose response assay to identify inhibitors of T-cell receptor (TCR)-CD3 interaction using a TAMRA-labeled BSA probe.; format: functional
[6] = biological target: Induced myeloid leukemia cell differentiation protein Mcl-1 (Homo sapiens, UniProt Q07820); format: functional
Induced myeloid leukemia cell differentiation protein Mcl-1, sequence (Q07820 whole entry): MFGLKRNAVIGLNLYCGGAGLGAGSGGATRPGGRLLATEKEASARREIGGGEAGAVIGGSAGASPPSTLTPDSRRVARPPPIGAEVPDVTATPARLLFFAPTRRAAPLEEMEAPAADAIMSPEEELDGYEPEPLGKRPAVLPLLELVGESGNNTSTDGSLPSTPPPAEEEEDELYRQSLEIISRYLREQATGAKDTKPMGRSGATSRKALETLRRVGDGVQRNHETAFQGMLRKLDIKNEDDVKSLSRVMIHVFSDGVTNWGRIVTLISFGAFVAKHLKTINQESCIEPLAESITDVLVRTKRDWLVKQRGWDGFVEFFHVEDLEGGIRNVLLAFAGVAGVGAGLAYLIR

Prothrombin = Prothrombin (Bos taurus, UniProt P00735); assay: thrombin inhibition, dose response, biochemical, fluorescence polarization, uHTS hits (AID 602369); format: functional
[7] = biological target: Transitional endoplasmic reticulum ATPase (Homo sapiens, UniProt P55072, C522A); assay: C522A mutant p97 ATPase inhibitors, dose response, counter-screen for p97 inhibitor project, biochemical, luminescence (AID 1544)
Transitional endoplasmic reticulum ATPase (Homo sapiens, UniProt P55072, C522A), sequence (P55072 2-806 C522A limits assumed): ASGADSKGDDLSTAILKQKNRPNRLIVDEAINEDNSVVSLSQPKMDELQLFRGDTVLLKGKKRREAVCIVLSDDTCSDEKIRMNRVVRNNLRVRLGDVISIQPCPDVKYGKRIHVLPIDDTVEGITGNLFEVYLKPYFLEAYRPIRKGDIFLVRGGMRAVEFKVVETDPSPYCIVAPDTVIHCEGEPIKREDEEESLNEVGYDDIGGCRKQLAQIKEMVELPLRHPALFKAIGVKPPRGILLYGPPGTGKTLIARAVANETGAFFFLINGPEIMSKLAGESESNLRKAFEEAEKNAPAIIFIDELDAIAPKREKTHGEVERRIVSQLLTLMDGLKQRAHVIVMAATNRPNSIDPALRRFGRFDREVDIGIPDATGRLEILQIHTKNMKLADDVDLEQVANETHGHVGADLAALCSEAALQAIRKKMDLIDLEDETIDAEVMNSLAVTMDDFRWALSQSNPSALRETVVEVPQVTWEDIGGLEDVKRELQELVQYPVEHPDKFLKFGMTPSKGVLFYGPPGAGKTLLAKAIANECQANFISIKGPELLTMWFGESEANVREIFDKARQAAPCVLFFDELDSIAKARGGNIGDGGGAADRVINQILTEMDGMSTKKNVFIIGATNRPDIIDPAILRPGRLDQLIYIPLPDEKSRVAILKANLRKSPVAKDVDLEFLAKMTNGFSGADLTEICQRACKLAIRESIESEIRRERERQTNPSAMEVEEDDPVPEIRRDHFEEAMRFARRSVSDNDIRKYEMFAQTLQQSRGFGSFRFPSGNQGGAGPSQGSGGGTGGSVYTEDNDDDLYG

[8] = biological target: T4, RNA-binding protein pos-1 (Caenorhabditis elegans, UniProt G5EF15); assay: inhibitors of POS-1/mex-3 RNA binding, dose response, biochemical, fluorescence polarization (AID 1964);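 further: purified POS-1 fused to maltose binding protein made in E. coli; potency of compounds blocking POS-1 binding to fluorescent RNA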
T4 sequence (G5EF15 whole entry): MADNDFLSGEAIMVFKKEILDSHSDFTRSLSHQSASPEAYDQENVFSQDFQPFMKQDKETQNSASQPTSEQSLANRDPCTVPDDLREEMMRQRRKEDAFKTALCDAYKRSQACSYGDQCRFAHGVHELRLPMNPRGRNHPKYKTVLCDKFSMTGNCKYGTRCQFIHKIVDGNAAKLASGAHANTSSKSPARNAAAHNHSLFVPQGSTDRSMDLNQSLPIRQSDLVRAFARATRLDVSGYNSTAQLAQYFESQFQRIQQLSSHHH

[9] = biological target: T5, RNA-editing ligase 1, mitochondrial (Trypanosoma brucei brucei, UniProt P86926); assay: TbREL1 ligase inhibitors, dose response, biochemical, fluorescence, Trypanosoma brucei (AID 1117295); format: functional
T5 sequence (P86926 whole entry): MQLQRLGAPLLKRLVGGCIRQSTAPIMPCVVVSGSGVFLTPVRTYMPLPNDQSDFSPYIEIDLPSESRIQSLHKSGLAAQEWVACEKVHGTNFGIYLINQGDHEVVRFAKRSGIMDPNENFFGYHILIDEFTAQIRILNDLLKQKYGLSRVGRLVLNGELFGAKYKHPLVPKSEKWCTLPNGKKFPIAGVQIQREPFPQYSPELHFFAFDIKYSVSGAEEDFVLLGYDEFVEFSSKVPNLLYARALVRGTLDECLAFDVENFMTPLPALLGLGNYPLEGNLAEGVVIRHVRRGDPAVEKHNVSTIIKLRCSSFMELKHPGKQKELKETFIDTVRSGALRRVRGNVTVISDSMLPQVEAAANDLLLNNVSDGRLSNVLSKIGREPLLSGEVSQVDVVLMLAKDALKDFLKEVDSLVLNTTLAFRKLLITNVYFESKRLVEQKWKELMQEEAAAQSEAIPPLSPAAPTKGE

[10] = biological target: 72 kDa type IV collagenase (Homo sapiens, UniProt P08253); assay: Dose Response validation of uHTS RPN11 inhibitor hits using a MMP-2 Fluorescence assay.; format: functional
72 kDa type IV collagenase, sequence (P08253 whole entry): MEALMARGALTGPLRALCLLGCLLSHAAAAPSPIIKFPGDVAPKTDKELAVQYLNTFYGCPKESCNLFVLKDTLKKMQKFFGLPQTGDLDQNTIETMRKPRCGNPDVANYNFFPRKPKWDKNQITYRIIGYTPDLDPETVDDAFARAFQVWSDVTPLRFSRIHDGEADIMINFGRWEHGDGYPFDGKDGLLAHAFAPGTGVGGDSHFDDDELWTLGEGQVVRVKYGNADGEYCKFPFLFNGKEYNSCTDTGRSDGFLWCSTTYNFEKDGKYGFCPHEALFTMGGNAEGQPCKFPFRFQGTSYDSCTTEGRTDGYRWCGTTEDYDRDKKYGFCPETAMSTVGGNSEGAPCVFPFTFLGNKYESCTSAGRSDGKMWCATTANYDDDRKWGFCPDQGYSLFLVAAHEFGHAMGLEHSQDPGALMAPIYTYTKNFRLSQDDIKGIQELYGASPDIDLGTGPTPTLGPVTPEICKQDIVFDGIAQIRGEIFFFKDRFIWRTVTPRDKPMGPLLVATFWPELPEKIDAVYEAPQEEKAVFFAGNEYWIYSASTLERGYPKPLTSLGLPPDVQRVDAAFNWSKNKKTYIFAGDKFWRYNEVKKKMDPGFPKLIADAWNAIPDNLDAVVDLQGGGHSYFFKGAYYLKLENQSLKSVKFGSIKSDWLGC

[11] = biological target: T6, Bifunctional protein GlmU (Mycobacterium tuberculosis, UniProt P9WMN3); assay: Inhibitors of Mycobacterial Glucosamine-1-phosphate acetyl transferase (GlmU). Secondary screen.; design: species or system Mycobacterium tuberculosis H37Rv
T6 sequence (P9WMN3 whole entry): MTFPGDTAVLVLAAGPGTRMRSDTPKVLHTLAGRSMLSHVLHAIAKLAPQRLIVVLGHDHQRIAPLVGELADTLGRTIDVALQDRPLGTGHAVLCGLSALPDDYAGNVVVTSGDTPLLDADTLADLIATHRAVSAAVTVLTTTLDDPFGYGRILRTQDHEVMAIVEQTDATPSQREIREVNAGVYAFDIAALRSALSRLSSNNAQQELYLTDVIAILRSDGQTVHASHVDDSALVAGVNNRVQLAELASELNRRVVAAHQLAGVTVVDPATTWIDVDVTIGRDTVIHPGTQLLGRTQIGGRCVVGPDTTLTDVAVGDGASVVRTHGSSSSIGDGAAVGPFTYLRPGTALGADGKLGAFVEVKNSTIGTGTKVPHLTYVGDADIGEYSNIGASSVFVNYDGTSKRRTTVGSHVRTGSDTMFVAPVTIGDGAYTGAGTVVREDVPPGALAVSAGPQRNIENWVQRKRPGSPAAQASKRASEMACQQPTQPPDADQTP

Beta-galactosidase = Beta-galactosidase (Escherichia coli, UniProt Q8VNN2); assay: beta-galactosidase enzyme inhibitors and activators, dose response, artefact control for CCR6 antagonist project, biochemical, E. coli enzyme, set 3 (AID 504712); format: functional
Genome polyprotein = Genome polyprotein (dengue virus type 2, UniProt P29990); assay: Dengue-2 NS5 methyltransferase inhibitors, primary screen, biochemical, confirmation dose response (AID 588689); format: functional
Genome polyprotein, sequence (P29990 2492-3391 limits assumed): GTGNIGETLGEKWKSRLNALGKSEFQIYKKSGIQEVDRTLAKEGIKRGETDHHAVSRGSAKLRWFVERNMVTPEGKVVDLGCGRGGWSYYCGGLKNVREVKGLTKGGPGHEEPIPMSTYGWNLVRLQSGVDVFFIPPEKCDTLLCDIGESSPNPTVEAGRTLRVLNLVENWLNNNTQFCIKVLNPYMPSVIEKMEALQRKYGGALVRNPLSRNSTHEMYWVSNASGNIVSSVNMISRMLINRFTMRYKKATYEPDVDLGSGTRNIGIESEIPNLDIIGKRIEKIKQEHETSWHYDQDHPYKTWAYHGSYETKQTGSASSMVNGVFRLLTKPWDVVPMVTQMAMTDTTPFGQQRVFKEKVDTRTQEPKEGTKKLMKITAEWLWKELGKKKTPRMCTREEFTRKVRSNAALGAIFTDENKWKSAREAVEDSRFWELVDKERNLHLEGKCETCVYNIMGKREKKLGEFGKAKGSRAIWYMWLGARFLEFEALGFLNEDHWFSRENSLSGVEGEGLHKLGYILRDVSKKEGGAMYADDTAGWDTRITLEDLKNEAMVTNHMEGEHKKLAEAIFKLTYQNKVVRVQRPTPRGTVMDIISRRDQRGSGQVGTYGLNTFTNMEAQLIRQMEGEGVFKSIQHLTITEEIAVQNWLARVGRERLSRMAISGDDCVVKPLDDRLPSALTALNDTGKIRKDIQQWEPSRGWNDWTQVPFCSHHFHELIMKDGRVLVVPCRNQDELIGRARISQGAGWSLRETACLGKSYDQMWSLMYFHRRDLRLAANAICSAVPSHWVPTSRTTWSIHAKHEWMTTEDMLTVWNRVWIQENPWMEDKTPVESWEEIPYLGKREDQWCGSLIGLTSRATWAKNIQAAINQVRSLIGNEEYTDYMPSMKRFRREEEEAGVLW

Hexokinase HKDC1 = biological target: T7, Hexokinase HKDC1 (Homo sapiens, UniProt Q2TB90); assay: HKDC1 hexokinase inhibitors, dose response, biochemical, W721R variant (AID 504729); format: functional
T7 sequence (Q2TB90 whole entry): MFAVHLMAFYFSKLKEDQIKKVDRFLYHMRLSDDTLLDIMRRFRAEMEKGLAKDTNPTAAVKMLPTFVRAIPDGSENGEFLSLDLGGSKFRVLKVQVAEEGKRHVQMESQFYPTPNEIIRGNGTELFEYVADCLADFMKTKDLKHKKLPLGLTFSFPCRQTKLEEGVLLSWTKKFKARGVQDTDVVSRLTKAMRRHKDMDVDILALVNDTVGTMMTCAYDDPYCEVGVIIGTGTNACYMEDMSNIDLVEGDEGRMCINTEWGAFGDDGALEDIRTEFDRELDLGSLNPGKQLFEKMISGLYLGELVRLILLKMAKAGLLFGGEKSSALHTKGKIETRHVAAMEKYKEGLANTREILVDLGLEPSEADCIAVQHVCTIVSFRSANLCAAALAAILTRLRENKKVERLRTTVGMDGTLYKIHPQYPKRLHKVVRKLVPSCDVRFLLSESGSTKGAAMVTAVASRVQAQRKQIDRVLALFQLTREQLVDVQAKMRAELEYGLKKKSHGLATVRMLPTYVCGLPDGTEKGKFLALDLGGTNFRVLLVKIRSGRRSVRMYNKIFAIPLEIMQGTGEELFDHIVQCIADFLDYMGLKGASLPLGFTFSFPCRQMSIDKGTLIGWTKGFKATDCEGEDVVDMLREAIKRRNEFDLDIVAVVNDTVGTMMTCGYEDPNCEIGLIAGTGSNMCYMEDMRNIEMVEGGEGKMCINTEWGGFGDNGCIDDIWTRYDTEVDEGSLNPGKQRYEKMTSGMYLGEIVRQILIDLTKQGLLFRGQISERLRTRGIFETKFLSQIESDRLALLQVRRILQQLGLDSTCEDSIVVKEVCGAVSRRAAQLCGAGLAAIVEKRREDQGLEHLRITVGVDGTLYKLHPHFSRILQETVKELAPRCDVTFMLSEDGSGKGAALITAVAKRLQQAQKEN

[12] = biological target: Glucose-6-phosphate 1-dehydrogenase (Homo sapiens, UniProt P11413); assay: human G6PD enzyme inhibitors, dose response, selectivity assay for P. falciparum G6PD inhibitor project, biochemical, fluorescence (AID 504792); format: functional
Glucose-6-phosphate 1-dehydrogenase, sequence (P11413 whole entry): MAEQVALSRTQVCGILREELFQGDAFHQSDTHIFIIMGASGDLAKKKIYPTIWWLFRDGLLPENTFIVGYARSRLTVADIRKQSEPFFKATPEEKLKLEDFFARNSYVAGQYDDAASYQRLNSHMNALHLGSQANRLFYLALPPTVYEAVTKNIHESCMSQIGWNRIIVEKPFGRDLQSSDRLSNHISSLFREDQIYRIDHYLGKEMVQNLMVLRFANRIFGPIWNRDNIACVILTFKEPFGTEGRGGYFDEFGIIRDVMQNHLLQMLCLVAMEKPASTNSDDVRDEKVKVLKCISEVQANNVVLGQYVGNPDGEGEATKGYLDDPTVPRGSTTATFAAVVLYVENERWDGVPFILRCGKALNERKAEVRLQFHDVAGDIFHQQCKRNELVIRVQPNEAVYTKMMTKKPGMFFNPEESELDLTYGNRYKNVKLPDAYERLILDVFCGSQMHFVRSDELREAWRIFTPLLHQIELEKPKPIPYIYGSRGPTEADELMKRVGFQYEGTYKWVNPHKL

[13] = THP-1 cell cytotoxicity, dose response, cytotoxicity control for Vif-APOBEC3G degradation inhibitor project, THP-1 cells (AID 1117359); format: functional; conditions: Human immunodeficiency virus 1, THP-1
Cytochrome P450 2C9 = Cytochrome P450 2C9 (Homo sapiens, UniProt P11712); conditions: Potency
Trypsin = Trypsin (Sus scrofa, UniProt P00761); assay: porcine trypsin inhibitors, dose response, selectivity assay for Rce1 protease inhibitor project, biochemical, quenched peptide fluorescence, cherry-pick (AID 488789)
Trypsin, sequence (P00761 whole entry): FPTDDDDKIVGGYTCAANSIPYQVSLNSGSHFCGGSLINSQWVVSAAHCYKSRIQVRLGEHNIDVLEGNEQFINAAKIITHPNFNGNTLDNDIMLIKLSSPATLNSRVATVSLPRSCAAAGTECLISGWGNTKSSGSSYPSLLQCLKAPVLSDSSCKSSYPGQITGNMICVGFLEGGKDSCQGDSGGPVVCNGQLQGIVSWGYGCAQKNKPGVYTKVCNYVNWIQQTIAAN

CAAX prenyl protease 2 = biological target: T8, CAAX prenyl protease 2 (Saccharomyces cerevisiae S288c, UniProt Q03530); format: biochemical
T8 sequence (Q03530 whole entry): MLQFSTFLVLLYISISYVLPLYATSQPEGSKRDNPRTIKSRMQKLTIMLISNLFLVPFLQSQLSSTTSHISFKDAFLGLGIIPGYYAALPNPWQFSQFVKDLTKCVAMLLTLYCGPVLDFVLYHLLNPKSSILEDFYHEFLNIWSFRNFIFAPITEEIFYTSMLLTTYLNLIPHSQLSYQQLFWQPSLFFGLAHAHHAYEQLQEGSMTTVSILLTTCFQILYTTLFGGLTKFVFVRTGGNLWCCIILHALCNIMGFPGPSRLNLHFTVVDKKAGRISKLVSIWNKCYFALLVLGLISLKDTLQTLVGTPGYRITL

26S proteasome non-ATPase regulatory subunit 14, sequence (O00487 whole entry): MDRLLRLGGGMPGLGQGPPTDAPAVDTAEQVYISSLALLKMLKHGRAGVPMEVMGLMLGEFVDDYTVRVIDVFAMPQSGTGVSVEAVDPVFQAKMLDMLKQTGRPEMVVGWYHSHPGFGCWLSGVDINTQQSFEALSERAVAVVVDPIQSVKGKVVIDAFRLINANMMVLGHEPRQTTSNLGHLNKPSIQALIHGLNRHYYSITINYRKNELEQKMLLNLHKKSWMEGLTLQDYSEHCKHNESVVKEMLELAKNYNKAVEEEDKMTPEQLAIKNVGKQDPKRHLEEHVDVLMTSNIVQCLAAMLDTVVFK

Compound: Cc1n[nH]c(S/C(=C\c2ccc(-c3ccc(C(=O)O)c(Cl)c3)o2)C(=O)O)n1
- IC50 [1]: 9.04 µM (active)
- IC50 [2]: > 50 µM (not active)
- IC50 [3]: 13.1 µM (active)
- IC50 (Aminopeptidase N): 11.3 µM (active)
- EC50 [4]: 1.38 µM (active)
- IC50 [5]: > 66.6 µM (inactive)
- IC50 (Albumin): > 94.1 µM (inactive)
- IC50 [6]: 2.35 µM (active)
- IC50 (Prothrombin): 9.79 µM (active)
- IC50 [7]: > 50 µM (not active)
- EC50 [8]: 1.76 µM (active)
- IC50 [9]: 22.9 µM (inactive)
- IC50 [10]: > 100 µM (inactive)
- IC50 [11]: 61.9 µM (active)

Compound: COC1=C(OC)C(=O)C(Sc2ccc3ccccc3c2)=CC1=O
- IC50 (Beta-galactosidase): > 66.6 µM (inactive)
- IC50 (Genome polyprotein): 5.09 µM (active)
- IC50 (Hexokinase HKDC1): 3.33 µM (active)
- IC50 [12]: 18.7 µM (active)
- CC50 [13]: > 40 µM (active)

Compound: COc1ccc(-c2oc3cc(OC)c(OC(C)=O)c(OC)c3c(=O)c2OC)cc1OC(C)=O
- AC50 (Cytochrome P450 2C9): 31.6 µM (inconclusive)

Compound: Cc1cc(-c2ccccc2)n2nc(C)c(C#N)c2n1
- AC50 (Trypsin): 3.3 µM (active)
- AC50 (CAAX prenyl protease 2): 15.5 µM (active)
